According to US20090093473A1, “Spiro-benzimidazoles as inhibitors of gastric acid secretion” (priority 2005, published 2009):

Key:
[1] = tested on: pentagastrin-stimulated acid secretion of the perfused rat stomach; assay: Secretion-inhibiting action on the perfused rat stomach (pentagastrin-stimulated acid secretion); assay type: in vivo; conditions: intraduodenal, anesthetized CD rat, dose 1 μmol/kg i.d.
From the text: Testing of the Secretion-Inhibiting Action on the Perfused Rat Stomach
In Table A which follows, the influence of the compounds of the formula 1 according to the invention on the pentagastrin-stimulated acid secretion of the perfused rat stomach after intraduodenal administration in vivo is shown.
The abdomen of anesthetized rats (CD rat, female, 200-250 g; 1.5 g/kg i.m. urethane) was opened after tracheotomy by a median upper abdominal incision and a PVC catheter was fixed transorally in the esophagus and another via the pylorus such that the ends of the tubes just projected into the gastric lumen. The catheter leading from the pylorus led outward into the right abdominal wall through a side opening.
After thorough rinsing (about 50-100 ml), warm (37° C.) physiological NaCl solution was conbinuously passed through the stomach (0.5 ml/min, pH 6.8-6.9; Braun-Unita I). The pH (pH meter 632, glass electrode EA 147; φ=5 mm, Metrohm) and, by titration with a freshly prepared 0.01N NaOH solution to pH 7 (Dosimat 665 Metrohm), the secreted HCl were determined in the effluent in each case collected at an interval of 15 minutes.
The gastric secretion was stimulated by continuous infusion of 1 μg/kg (=1.65 mllh) of i.v. pentagastrin (left femoral vein) about 30 min after the end of the operation (i.e. after determination of 2 preliminary fractions). The substances to be tested were administered intraduodenally in a 2.5 ml/kg liquid volume 60 min after the start of the continuous pentagastrin infusion. The body temperature of the animals was kept at a constant 37.8-38° C. by infrared irradiation and heat pads (automatic, stepless control by means of a rectal temperature sensor).

With `Cc1nc2c3c(c(C(N)=O)cc2n1C)CCC1(Cc2ccccc2C1)N3` [Example 18, 2,3-dimethyl-1′,3,3′,6,7,9-hexahydrospiro[imidazo[4,5-h]quinoline-8,2′-indene]-5-carboxamide] the melting point was 272 to 273 °C and the inhibition in vivo at 1 µmol/kg [1] was greater than 80%.
`Cc1nc2c3c(c(C(=O)NC4CC4)cc2n1C)CCC1(Cc2ccccc2C1)N3` [Example 24, N-cyclopropyl-2,3-dimethyl-1′,3,3′,6,7,9-hexahydrospiro[imidazo[4,5-h]quinoline-8,2′-indene]-5-carboxamide] showed a melting point of 247 to 248 °C and an inhibition in vivo at 1 µmol/kg [1] greater than 80%.
Work on `Cc1nc2c3c(c(C(=O)N4CCOCC4)cc2n1C)CCC1(Cc2ccccc2C1)N3` [Example 25, 2,3-dimethyl-5-(morpholin-4-ylcarbonyl)-1′,3,3′,6,7,9-hexahydrospiro[imidazo[4,5-h]-quinoline-8,2′-indene]] yielded a melting point of 284 to 285 °C and an inhibition in vivo at 1 µmol/kg [1] greater than 80%.
Compound `CC(=O)CNC(=O)c1cc2c(nc(C)n2C)c2c1CCC1(Cc3ccccc3C1)N2` [Example 14, 2,3-dimethyl-N-(2-oxopropyl)-1′,3,3′,6,7,9-hexahydrospiro[imidazo[4,5-h]quinoline-8,2′-indene]-5-carboxamide] has a melting point of 222 to 223 °C and an inhibition in vivo at 1 µmol/kg [1] greater than 80%.
